Data reported in EP3057950B1, “PHENYL LINKED QUINOLINYL MODULATORS OF ROR-GAMMA-T” (Janssen Pharmaceutica NV, priority 2013, dated 2015).
pIC50, pKd: −log10 of the molar value. Where a name gives a salt, the structure may show the parent alone. Read-outs that look alike come from different tables or passages of the source.

How the values were obtained:
[1] = target: T1, wild type human RORγt ligand binding domain (RORγt LBD) (Homo sapiens, UniProt P51449); assay: RORγt ThermoFluor® Assay (thermal shift, binding affinity); settings: pH 7.0, estimated from concentration response curves
T1 construct: His-tag (N); TurboTEV protease cleavage site (ENLYFQG) (N); made in house; host or cells: E. coli (pHIS1, modified pET expression vector)
T1 sequence (P51449 269-508 limits assumed): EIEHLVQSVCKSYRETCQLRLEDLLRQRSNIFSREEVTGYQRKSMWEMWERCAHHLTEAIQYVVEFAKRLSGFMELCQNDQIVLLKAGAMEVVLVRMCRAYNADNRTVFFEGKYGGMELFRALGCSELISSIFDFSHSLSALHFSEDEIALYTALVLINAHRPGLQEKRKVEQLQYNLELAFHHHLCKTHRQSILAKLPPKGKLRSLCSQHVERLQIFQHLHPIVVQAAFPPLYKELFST
Procedure: This approach is applicable to a wide variety of systems, and rigorous in theoretical interpretation through quantitation of equilibrium binding constants (KD).
The shift in the melting point described as a ΔTm is proportional to the concentration and affinity of the ligand.
Protein and compound solutions are dispensed into black 384-well polypropylene PCR microplates (Abgene) and overlayed with silicone oil (1 µL, Fluka, type DC 200) to prevent evaporation.
Bar-coded assay plates are robotically loaded onto a thermostatically controlled PCR-type thermal block and then heated at a typical ramp-rate of 1 °C/min for all experiments. Fluorescence was measured by continuous illumination with UV light (Hamamatsu LC6) supplied via fiber optic and filtered through a band-pass filter (380-400 nm; >6 OD cutoff). Fluorescence emission of the entire 384-well plate was detected by measuring light intensity using a CCD camera (Sensys, Roper Scientific) filtered to detect 500 ± 25 nm, resulting in simultaneous and independent readings of all 384 wells. Images were collected at each temperature, and the sum of the pixel intensity in a given area of the assay plate was recorded versus temperature. Reference wells contained RORγt without compounds, and the assay conditions were as follows: • 0.065 mg/mL RORγt • 60 µM 1,8-ANS • 100 mM Hepes, pH 7.0 • 10 mM NaCl • 2.5 mM GSH • 0.002% Tween-20
Project compounds were arranged in a pre-dosed mother plate (Greiner Bio-one) wherein compounds are serially diluted in 100% DMSO by 1:2 from a high concentration of 10 mM over 12 columns within a series (column 12 is a reference well containing DMSO, no compound). The compounds were robotically dispensed directly into assay plates (1x = 46 nL) using a Hummingbird capillary liquid handling instrument (Digilab). Following compound dispense, protein and dye in buffer was added to achieve the final assay volume of 3 µL, followed by 1 µL of silicone oil.

[2] = target: T2, wild type human RORγt LBD (Homo sapiens, UniProt P51449); assay: RORγt Reporter Assay (GAL4-RORγt LBD luciferase in HEK293T cells); format: cell-based; settings: for pIC50: read-out: RORγt reporter Assay, IC50; for inhibition at 6 µM: HEK-293T
T2 construct: expressed in transfected cells; host or cells: HEK293T
T2 sequence (P51449 269-508 limits assumed): T1 sequence (P51449 269-508 limits assumed)
From the text: A reporter assay was used to test functional activity of RORγt modulatory compounds on transcriptional activation driven by the RORγt LBD. Cells used in the assay were co-transfected with two constructs. The first construct, pBIND-RORγt LBD, contained the wild type human RORγt LBD fused to the DNA binding domain of the GAL4 protein. The second construct, pGL4.31 (Promega Cat no. C935A), contained multiple GAL4 responsive DNA elements upstream of firefly luciferase. […] The mutant construct was called pBIND-RORγt-AF2.
The pBIND vector contains the GAL4 DNA Binding Domain (GAL4 DBD) and the renilla luciferase gene under control of the SV40 promoter. Renilla luciferase expression serves as a control for transfection efficiency and cell viability.
The reporter assay was performed by transiently transfecting HEK293T cells with 5 µg of pBIND-RORγt LBD or pBIND-RORγt LBD-AF2 and 5 µg pGL4.31 (Promega Cat no. C935A) using Fugene 6 (Invitrogen Cat no. E2691) at a 1:6 ratio of DNA: Fugene 6 in a T-75 flask in which cells were at least 80% confluent. Twenty four hours after bulk transfection, cells were plated into 96-well plates at 50,000 cells/well in phenol-red free DMEM containing 5% Lipid Reduced FCS and Pen/Strep. Six hours after plating, cells were treated with compounds for 24 hours. Media was removed and cells were lysed with 50 µL 1x Glo Lysis Buffer (Promega). Dual Glo Luciferase Reagent (50 µL/well) was then added and firefly luciferase luminescence was read on an Envision after a ten minute incubation. Finally, Stop and Glo reagent (50 µL/well) was added and renilla luciferase luminescence was read on an Envision instrument after a ten minute incubation. To calculate the effect of compounds on RORγt activity, the ratio of firefly to renilla luciferase was determined and plotted against compound concentration. Agonist compounds increase RORγt-driven luciferase expression, and antagonist or inverse agonist compounds decrease luciferase expression.

[3] = HEK293T cells, compounds for 24 hours
[4] = read-out: RORγt reporter Assay, % inhibition @ 6 µM, @ 6 µM, HEK293T cells

Structure (SMILES)	pKd [1]	pIC50 [2, 3]	inhibition at 6 µM [2, 4]	RORγt reporter Assay, % inhibition @ 6 µM ([2]; @ 6 µM, HEK293T cells)	inhibition at 6 µM ([2]; read-out: RORγt reporter Assay, % inhibition @ 6 µM)	IC50 ([2]; RORγt reporter Assay, IC50 (µM), HEK293T cells, compounds for 24 hours)
COc1nc2ccc(C(O)(c3ccc(C(F)(F)F)nc3)c3cncn3C)cc2c(Cl)c1-c1cnn(C)c1 (stereo not drawn) [Example 8, [4-Chloro-2-methoxy-3-(1-methyl-1H-pyrazol-4-yl)quinolin-6-yl](1-methyl-1H-imidazol-5-yl)[6-(trifluoromethyl)pyridin-3-yl]methanol•TFA]	6.57	6.05	87%			
COc1nc2ccc(C(O)(c3ccc(C(F)(F)F)nc3)c3cncn3C)cc2c(Cl)c1-c1cccc(NS(C)(=O)=O)c1 (stereo not drawn) [Example 12]	6.19	~5.70	90%			
COc1nc2ccc(C(O)(c3cnnn3C)c3cnc(C)n3C)cc2c(Cl)c1-c1ccccc1 (stereo not drawn) [Example 41a, (4-Chloro-2-methoxy-3-phenylquinolin-6-yl)(1,2-dimethyl-1H-imidazol-5-yl)(1-methyl-1H-1,2,3-triazol-5-yl)methanol•TFA]	7.05	6.49	98%			
COc1nc2c(C)cc(C(O)(c3ccc(C(F)(F)F)nc3)c3cncn3C)cc2c(C#N)c1-c1ccc(OC(F)(F)F)cc1 (single isomer, unassigned) [Example 19c, 6-(Hydroxy(1-methyl-1H-imidazol-5-yl)(6-(trifluoromethyl)pyridin-3-yl)methyl)-2-methoxy-8-methyl-3-(4-(trifluoromethoxy)phenyl)quinoline-4-carbonitrile]	7.77	< 5.22		35%		
CON(C)c1nc2ccc(C(O)(c3ccc(Cl)cc3)c3cncn3C)cc2c(Cl)c1-c1ccccc1 (stereo not drawn) [Example 58, {4-Chloro-2-[methoxy(methyl)amino]-3-phenylquinolin-6-yl}(4-chlorophenyl)(1-methyl-1H-imidazol-5-yl)methanol]	6.66	6.82	99%			
CNCCN(C)c1nc2ccc(C(O)(c3ccncc3)c3cncn3C)cc2c(Cl)c1-c1ccccc1 (stereo not drawn) [Example 82]	4.96	< 5.22	18%			
COc1c(-c2ccccc2)c(C(F)(F)F)nc2ccc(C(O)(c3ccccn3)c3cncn3C)cc12 (single isomer, unassigned) [Example 32b, (4-Methoxy-3-phenyl-2-(trifluoromethyl)quinolin-6-yl)(1-methyl-1H-imidazol-5-yl)(pyridin-2-yl)methanol]	6.11	5.92	92%			
CC(=O)N1CCC(C(O)(c2ccccc2)c2cc(C)c3nc(C#N)c(-c4ccccc4)c(C#N)c3c2)CC1 (single isomer, unassigned) [Example 21b, 6-((1-Acetylpiperidin-4-yl)(hydroxy)(phenyl)methyl)-8-methyl-3-phenylquinoline-2,4-dicarbonitrile]	5.89	5.80	87%			
CON(C)c1nc2ccc(C(O)(c3ccc(C(F)(F)F)nc3)c3cncn3C)cc2c(N(C)OC)c1-c1ccccc1 (stereo not drawn) [Example 57, {2,4-Bis[methoxy(methyl)amino]-3-phenylquinolin-6-yl}(1-methyl-1H-imidazol-5-yl)[6-(trifluoromethyl)pyridin-3-yl]methanol]	6.24	6.16	100%			
CON(C)c1nc2ccc(C(O)(c3ccc(C(F)(F)F)nc3)c3cncn3C)cc2c(Cl)c1-c1ccccc1 (stereo not drawn) [Example 56, {4-Chloro-2-[methoxy(methyl)amino]-3-phenylquinolin-6-yl}(1-methyl-1H-imidazol-5-yl)[6-(trifluoromethyl)pyridin-3-yl]methanol]	7.22	7.64	102%			
Cn1cncc1C(O)(c1ccc(Cl)cc1)c1ccc2nc(OCCN3CC3)c(-c3ccccc3)c(Cl)c2c1 (stereo not drawn) [Example 44, [2-(2-Aziridin-1-ylethoxy)-4-chloro-3-phenylquinolin-6-yl](4-chlorophenyl)(1-methyl-1H-imidazol-5-yl)methanol]	5.27				31%	> 6 µM
